# Laboratory results taken from patent publication US5681820A, “Guanidinoalkyl glycine β-amino acids useful for inhibiting tumor metastasis” (G. D. Searle & Co., priority 1995, dated 1997).
# Where a name gives a salt, the structure may show the parent alone.
# Key:
# [1] = test system: M21 human melanoma cells (αv β3-dependent adhesion); assay: M21 Melanoma Cell Adhesion Assay: αv β3-dependent adhesion to human fibrinogen; format: cell-based; conditions: 0.5 h, 200 μM Mn++, 30 minutes, 37° C.
# Procedure: M21 Melanoma Cell Adhesion Assasy
# This assay involves an αv β3 -dependent adhesion of M21 human melanoma cells to human fibrinogen-coated plastic tissue culture dishes.
# Fibrinogen was purified from human plasma. Fibronectin and plasminogen were eliminated from the preparation by passing the sample over gelatin-sepharose 4B and lysine-sepharose 4B resins, respectively. The fibrinogen is diluted to 10 μg/mL in coating buffer (20 mM Tris-HCl, 150 mM NaCl, pH 7.4). 100 μL of diluted fibrinogen is added to each well of a 96-well Immulon 2 microtiter plate (Dynatech; Chantilly, Va.) and allowed to coat overnight at 4° C. […]
# M21 human melanoma cells were provided by Dr. J. Smith, La Jolla Cancer Research Institute. […] Cells are counted and suspended to a density of 2×10^6 /mL in adhesion assay buffer containing 200 μM Mn^++. […]
# Following adhesion, plates are gently washed 3 times with 200 μL of wash buffer (50 mM Tris-HCl, 150 mM NaCl, pH 7.4) using large bore pipet tips. Plates are briefly blotted dry and 100 μL of cell lysis buffer (50 mM sodium acetate, pH 5.0, 0.5% Triton X-100, 0.3 mg/mL p-nitrophenyl phosphate [Sigma] is added to each well. Plates are incubated for 60 minutes at 37° C. and 50 μL of 1N NaOH is added to stop the reaction. The absorbance of the wells at […] is read using an automatic plate reader.
# A3827 cells = assay: Cell Adhesion Assay: adhesion of A3827 cells to fibrinogen; format: cell-based; conditions: 300 μM MnCl2, 1 hour, 37° C.
# Procedure: Fibrinogen was purified from human plasma. Fibronectin and plasminogen were eliminated from the preparation by passing the sample over gelatin-sepharose 4B and lysine-sepharose 4B resins, respectively. The fibrinogen was resuspended at a concentration of 10 μg/mL in 100 mM sodium bicarbonate, pH 9.0. Immulon II (Nunc) microtiter plates were coated by incubating with 100 μL/well of fibrinogen solution overnight at 4° C. After coating with fibrinogen, plates were rinsed three times with phosphate buffered saline (PBS) and 100 μL of a 1% bovine serum albumin (BSA) solution was added to each well and stored at -20° C. until needed. A3827 cells were harvested from subconfluent 75 cm^2 culture flasks with 2 mM EDTA in PBS and resuspended at 5×10^5 cells/mL in Dulbecco's PBS without calcium or magnesium (Sigma #5652) containing 1% BSA. MnCl2 was added to a final concentration of 300 μM. Test compounds were resuspended in PBS and added to the cell suspension before serial dilution. […] Adherent cells were quantitated using a non-radioactive cell proliferation assay (Promega #G5430) using the instructions provided by the supplier. Plates were allowed to equilibrate overnight at room temperature in a humidified chamber and a Biotek EL312 microplate spectrophotometer was used to measure the difference in absorbance at […]. […]
# [2] = target: T1, human vitronectin receptor (αv β3) (Homo sapiens, UniProt P05106+P06756); assay: Solid Phase Receptor Assay: purified vitronectin receptor (αv β3), competition with biotinylated vitronectin; format: binding; conditions: 1 nM biotinylated vitronectin, read-out: VnR/IC50
# T1 construct: Human vitronectin receptor(αv β3) was purified from human placenta; from tissue; host or cells: human placenta
# Procedure: Human vitronectin receptor(αv β3) was purified from human placenta as previously described [Pytela et al., Methods in Enzymology, 144:475-489 (1987)]. Human vitronectin was purified from fresh frozen plasma as previously described [Yatohgo et al., Cell Structure and Function, 13:281-292 (1988)]. Biotinylated human vitronectin was prepared by coupling NHS-biotin from Pierce Chemical Company (Rockford, Ill.) to purified vitronectin as previously described [Charo et al., J. Biol. Chem., 266(3):1415-1421 (1991)]. Assay buffer, OPD substrate tablets, and RIA grade BSA were obtained from Sigma (St. Louis, Mo.). Anti-biotin antibody was obtained from Calbiochem (La Jolla, Calif.). GRGDSP peptide was purchased from Bachem (Torrance, Calif.). Linbro microtiter plates were obtained from Flow Labs (McLean, Va.). ADP reagent was obtained from Sigma (St. Louis, Mo.).
# Solid Phase Receptor Assays
# This assay was essentially the same as previously reported [Niiya et al., Blood, 70:475-483 (1987)]. […] The plate was read with a microtiter plate reader at a wavelength of 450 nm and when the maximum-binding control wells reached an absorbance of about 1.0, the final A450 were recorded for analysis. The data were analyzed using a macro written for use with the EXCEL™ spreadsheet program. The mean, standard deviation, and %CV were determined for duplicate concentrations. […]
SMILES,IC50 [1] [nM],IC50 (A3827 cells) [nM],IC50 [2] [nM]
"N=C(N)NCCCCC(=O)NCC(=O)NC(CC(=O)O)c1cccnc1 (stereo not drawn) [Example 1, β-[[2-[[5-[(aminoiminomethyl)amino]-1-oxopentyl]amino]-1-oxoethyl]amino]-3-pyridinepropanoic acid, bistrifluoroacetate salt]",40.4,30,–
"N=C(N)NCCCCC(=O)N1CCC[C@H]1C(=O)N[C@@H](CC(=O)O)c1cccnc1 [Example 2, βS-[[[1-[5-[(aminoiminomethyl)amino]-1-oxopentyl]pyrrolidin-2-yl]carbonyl]amino-3-pyridinepropanoic acid, bistrifluoroacetate salt]",–,–,142
"CCOC(=O)CC(NC(=O)CNC(=O)CCCNC(=N)N)c1cccnc1 (racemic) [Example 3-ethyl ester, (±) ethyl β-[[2-[[4-[(aminoiminomethyl)amino]-1-oxobutyl]amino]-1-oxoethyl]amino]-3-pyridinepropanoate]",1410,–,987
